Measurements: publication PMC9923724, “Half sandwich-type osmium, ruthenium, iridium and rhodium complexes with bidentate glycosyl heterocyclic ligands induce cytostasis in platinum-resistant ovarian cancer cells and bacteriostasis in Gram-positive multiresistant bacteria” (Frontiers in Chemistry, 2023)
Read-outs that look alike come from different tables or passages of the source.

Assays:
[1] = system: cisplatin resistant A2780 cells; assay: SRB assay (48 h) on cisplatin-resistant A2780 cells; format: cell-based
Method: 6 × 10^3 cisplatin-resistant A2780 cells were plated to 96 well plates. Cells were treated with the compounds in the concentrations indicated for either 4 h for an MTT assay or for 48 h for an SRB assay. Data is represented as average ± SD, from three biological replicates; individual assays were performed in duplicates. Values were normalized for vehicle treated cells, absorbance for vehicle treated cells equals to 1. Each compound was assessed individually. Normality was assessed using the Shapiro-Wilk test. […] Statistical significance was assessed using One-way ANOVA test comparing all points to the smallest concentration. For better visibility the p values are presented in an excel sheet at https://figshare.com/s/2c942a812caea8869a67. Non-linear regression was performed on the results of the SRB assay datasets.
Cisplatin resistant cells underwent selection (1 µM cisplatin) once a week for 3 days before plating for any assay.
(§1) The assay was performed similar to ([Kovács et al., 2019]). Cells were seeded in 96 well plates the day before the assay. Cells were treated with the compounds for 48 h. Cells were fixed with 10% trichloroacetic acid (TCA). Fixed cells were washed in distilled water 3 times followed by staining with SRB (0.4 m/V% dissolved in 1% acetic acid) for 10 min. Stained cells were washed in 1% acetic acid 5 times; acetic acid was removed and cells were left to dry. Protein-bound SRB was released by adding 100 µl 10 mM Tris base. Plates were measured in a plate photometer (Thermo Scientific Multiscan GO spectrophotometer, Waltham, MA, United States) at 540 nm. On each plate wells were designed to contain vehicle-treated cells. In calculations the readings for these wells was considered as 1 and all readings were expressed relative to these values.
Statistical analysis was performed using 8.0.1 version of Graphpad Prism. Values were tested for normal distribution using the D’Agostino and Pearson normality test. When necessary, values were log normalized or were normalized using the Box-Cox normalization method ([Box and Cox, 1964]) as indicated in the figure captions.

[2] = system: A2780 ovarian cancer cells; details: ref Kacsir et al., cited from earlier work
[3] = system: A2780 ovarian cancer cells; assay: MTT reduction assay (rapid toxicity, 4 h) on A2780 cells; format: cell-based; details: 4 h treatment
Method: (§2) First, we assessed a set of osmium complexes (similar to Ia [[Kacsir et al., 2022]) in Figure 1] and their sugar-derived ligands, in which the benzoyl protective groups on the carbohydrate moiety were replaced by aliphatic acyl groups of different chain length (straight chain C3-C7–CO). Osmium was selected as a central ion, since osmium complexes had the best biological activity in our previous studies ([Balázs et al., 2022]; [Kacsir et al., 2022]). These compounds were tested on A2780 ovarian cancer cells for toxicity and cytostasis. The therapy of ovarian cancer is centered around platinum compounds ([Brown et al., 2019]; [Sipos et al., 2021]), therefore, it was logical to use a cellular model of ovarian cancer for the initial testing of the compounds. Toxicity was assessed using the MTT assay that measures the activity of mitochondrial complex I. We chose 4 h long treatment as in an MTT assay this time point is suitable to detect rapid, direct toxicity. Cytostasis was assessed after 48 h of treatment using the SRB assay that assesses protein content that corresponds to cell count. The characteristics of the compounds are detailed in Table 2.
(§3) 3 × 10^3 A2780 cells, were plated to 96 well plates. Cells were treated with the compounds in the concentrations indicated for either 4 h for an MTT assay or for 48 h for an SRB assay. Data is represented as average ± SD, from three biological replicates; individual assays were performed in duplicates. Values were normalized for vehicle treated cells, absorbance for vehicle treated cells equals to 1. […] Except for the Os-6 complex, Two-way ANOVA test was performed and all values were compared with each other (Tukey’s post hoc test). […] Non-linear regression was performed on the data.
(§4) 3 × 10^3 A2780 cells, 2 × 10^3 ID8 cells and 4 × 10^3 primary fibroblasts were plated to 96 well plates. Cells were treated with the compounds in the concentrations indicated for either 4 h for an MTT assay or for 48 h for an SRB assay. Data is represented as average ± SD, from three biological replicates; individual assays were performed in duplicates. Values were normalized for vehicle treated cells, absorbance for vehicle treated cells equals to 1. Statistical significance was assessed using two-way ANOVA test comparing the free ligand and each complex as a complex-ligand pair. Before the test normality was assessed using the D’Agostino-Pearson test. The ID8 SRB Ir-7+L-7 dataset had lognormal distribution. […] All other datasets had normal distribution. For better visibility the p values are presented in an excel sheet at https://figshare.com/s/2c942a812caea8869a67. Non-linear regression was performed on the A2780 SRB and the ID8 SRB datasets.
(§5) MTT reduction assay measures the activity of mitochondrial complex I and can be used to detect toxicity ([Virág et al., 1998]; [Henslee et al., 2016]). The assay was performed similar to ([Bakondi et al., 2003]). Briefly, cells were plated in 96 well plates the day before the assay. Cells were treated with the compounds for 4 h, then MTT was added in 0.5 mg/ml final concentration and cells were incubated at 37°C in a cell incubator. Culture media was removed and the reduced MTT dye was dissolved in dimethyl-sulfoxide (DMSO) and plates were measured in a plate photometer (Thermo Scientific Multiscan GO spectrophotometer, Waltham, MA, United States) at 540 nm. On each plate wells were designed to contain untreated/vehicle-treated cells. In calculations the readings for these wells was considered as 1 and all readings were expressed relative to these values.

[4] = system: A2780 ovarian cancer cells; assay: SRB assay (cytostasis, 48 h) on A2780 cells; format: cell-based; details: 48 h treatment
Method: as §2, §3, §4, §1
Statistical analysis was performed using 8.0.1 version of Graphpad Prism. Values were tested for normal distribution using the D’Agostino and Pearson normality test. When necessary, values were log normalized or were normalized using the Box-Cox normalization method ([Box and Cox, 1964]) as indicated in the figure captions. […]

[5] = system: primary dermal fibroblasts; assay: MTT reduction assay (4 h) on primary fibroblasts; format: cell-based; details: primary human dermal fibroblasts
Method: as §4
Human primary dermal fibroblasts were cultured in low glucose DMEM (1 g/L glucose) medium supplemented with 20% fetal calf serum, 2 mM glutamine, 1% penicillin-streptomycin.
as §5

[6] = Determination of the distribution coefficients (logD); format: physicochemical; details: distribution coefficient
[7] = system: methicillin-resistant Staphylococcus aureus (MRSA) clinical isolates; assay: Broth microdilution MIC, clinical MRSA isolates; format: cell-based; details: for MRSA isolates susceptible out of those tested: 6 isolates tested, susceptible = MIC up to 40 µM; for MIC, MRSA 20 426: clinical isolate 20 426, blood, 2020; for MIC, MRSA 24 035: clinical isolate 24 035, wound; for MIC, MRSA 24 035 / MIC, MRSA 24 268 / MIC, MRSA 24 272 / MIC, MRSA 24 328 / MIC, MRSA 24 408: 2018; for MIC, MRSA 24 268: clinical isolate 24 268, throat; for MIC, MRSA 24 272: clinical isolate 24 272, throat; for MIC, MRSA 24 328: clinical isolate 24 328, throat; for MIC, MRSA 24 408: clinical isolate 24 408, bronchial
Method: (§6) The MIC values of the complexes were determined against the reference strains of S. aureus (ATCC29213) and E. faecalis. (ATCC29212) and against clinical VRE and MRSA isolates by microdilution assays (repeated at least twice in duplicates) as described in Materials and Methods. The numbers indicate how many isolates were susceptible to the compound out of those tested; i.e., 1/6 stands for 1 isolate was susceptible out of 6 tested. […] Cells were harvested and lysed. Cellular proteins was separated on a 10% SDS-PAGE gel and were blotted. Blots were probed with 4HNE antibody (top blot), the lower blot was stained with amido black. Arrows point at band of interest. Experiments were repeated three times and a representative blot is shown. On the blots brightness and contrast were adjusted. […] Each was matched to a substance and strain by its position over the x-axis categories. / Ir-7: ND and 0/3 (left plot) and ND and 0/6 (right plot) were matched to E. faecalis/VRE and S. aureus/MRSA by position only.
(§7) We used a set of clinical isloates of S. aureus and E. faecium that were collected at the Medical Center of the University of Debrecen (Hungary) between 01. 01. 2018.—31. 12. 2020. The clinical isolates were identified using a Microflex MALDI-TOF mass spectrometer (Bruker, Billerica, MA, United States). Antibiotic susceptibility of the isolates was tested following the European Committee on Antimicrobial Susceptibility Testing ([EUCAST, 2021]) guidelines valid at the time of collection.
(§8) Microdilution experiments were performed according to the standards of EUCAST ([EUCAST, 2021]). […] The inoculated plates were incubated for 24 h at 37°C then were assessed visually. […] All experiments were performed at least twice in duplicates.

[8] = system: Staphylococcus aureus (ATCC29213); assay: Broth microdilution MIC, Staphylococcus aureus reference strain; format: cell-based; details: for MIC, Reference S. aureus: Staphylococcus aureus ATCC29213, 24 h; for MIC (μM) (S. aureus), Figure 11: reference strain ATCC29213
Method: as §6
(§9) We used the reference strains of Staphylococcus aureus (ATCC29213), and Enterococcus faecalis (ATCC29212) that were purchased from ATCC (Manassas, VA, United States).
as §8

[9] = system: Enterococcus faecalis (ATCC29212); assay: Broth microdilution MIC, Enterococcus faecalis reference strain; format: cell-based; details: for MIC, Reference E. faecalis: Enterococcus faecalis ATCC29212, 24 h
Method: as §6, §9, §8

[10] = system: vancomycin-resistant Enterococcus (VRE) clinical isolates; assay: Broth microdilution MIC, clinical VRE isolates; format: cell-based, E. faecium; details: for VRE isolates susceptible out of those tested: 3 isolates tested, susceptible = MIC up to 40 µM; for MIC, VRE 25 051: clinical isolate 25 051, nephrostoma; for MIC, VRE 25 051 / MIC, VRE 25 498 / MIC, VRE 27 085: 2018; for MIC, VRE 25 498: clinical isolate 25 498, rectal swab; for MIC, VRE 27 085: clinical isolate 27 085, wound
Method: as §6, §7, §8

[11] = system: multiresistant bacteria (Staphylococcus aureus, Enterococcus species); parameters: method as in Balázs et al., 2022; details: ref Balázs et al., 2022; cited from earlier work
[12] = cisplatin resistant A2780 cells, SRB, 48 h

## N.N.[Cl][Pt][Cl] [Cisplatin, cisplatin, reference compound]
[1]; SRB assays, resistant / sensitive A2780
  fold change of IC50, cisplatin resistant vs cisplatin sensitive A2780: 13.6 fold
[1]; [12]
  IC50: 16.5 µM
  cisplatin resistant A2780 SRB Max. (maximal inhibition): >90%
[2]; A2780 cells, SRB, 2021
  A2780 SRB Max. (maximal inhibition), cisplatin: >90%
[2]; cisplatin-sensitive A2780 cells, SRB, 2021, read-out: A2780 SRB IC50, cisplatin
  IC50: 1.21 µM

## Cc1c(C)c(C)[c-](C)c1C.F[P-](F)(F)(F)(F)F.O=C(OCC1OC(n2cc(-c3ccc4ccccc4n3)nn2)C(OC(=O)c2ccccc2)C(OC(=O)c2ccccc2)C1OC(=O)c1ccccc1)c1ccccc1.[Cl][Rh+2] (mixture of isomers) [Rh-7]
[3]
  A2780 MTT Max. (maximal inhibition): 18.3%
[4]
  A2780 SRB Max. (maximal inhibition): 47.9%
[5]
  Fibroblast MTT Max. (maximal inhibition): 15.09%

## CCCCCC(=O)OCC1OC(n2cc(-c3ccccn3)nn2)C(OC(=O)CCCCC)C(OC(=O)CCCCC)C1OC(=O)CCCCC.Cc1ccc(C(C)C)cc1.F[P-](F)(F)(F)(F)F.[Cl][Os+] (mixture of isomers) [Os-4]
[6]
  LogD: 2.7
[3]
  A2780 MTT Max. (maximal inhibition): 84.4%
[4]
  A2780 SRB Max. (maximal inhibition): >90%
  IC50: 3.87 µM
[7]
  MRSA isolates susceptible out of those tested: 1/6
  MIC, MRSA 20 426: 40< µM
  MIC, MRSA 24 035: 40< µM
  MIC, MRSA 24 268: 40< µM
  MIC, MRSA 24 272: 40< µM
  MIC, MRSA 24 328: 40< µM
  MIC, MRSA 24 408: 40 µM
[8]
  MIC, Reference S. aureus: 40< µM
  MIC (μM) (S. aureus), Figure 11: ND (ND—not detected, MIC>40 µM)
[9]
  MIC, Reference E. faecalis: 40 µM
[10]
  VRE isolates susceptible out of those tested: 3/3
  MIC, VRE 25 051: 40 µM
  MIC, VRE 25 498: 40 µM
  MIC, VRE 27 085: 40 µM

## Cc1ccc(C(C)C)cc1.F[P-](F)(F)(F)(F)F.O=C(OCC1OC(n2cc(-c3ccccn3)nn2)C(OC(=O)c2ccccc2)C(OC(=O)c2ccccc2)C1OC(=O)c1ccccc1)c1ccccc1.[Cl][Os+] (mixture of isomers) [Ia]
[2]; A2780 cells, 2022, read-out: IC50 against A2780 ovarian cancer
  IC50: 0.73 µM
[11]
  MIC on multiresistant bacteria: 0.3 to 5.0 µM

## CCCCCCCC(=O)OCC1OC(n2cc(-c3ccccn3)nn2)C(OC(=O)CCCCCCC)C(OC(=O)CCCCCCC)C1OC(=O)CCCCCCC.Cc1ccc(C(C)C)cc1.F[P-](F)(F)(F)(F)F.[Cl][Os+] (mixture of isomers) [Os-6]
[6]
  LogD: 2.8
[3]
  A2780 MTT Max. (maximal inhibition): 76.9%
  IC50: 16.5 µM
[4]
  A2780 SRB Max. (maximal inhibition): 88.4%
[7]; 6 clinical MRSA isolates
  MIC against clinical MRSA isolates (as a group): > 40 µM
[7]
  MRSA isolates susceptible out of those tested: 0/6
  MIC, MRSA 20 426: 40< µM
  MIC, MRSA 24 035: 40< µM
  MIC, MRSA 24 268: 40< µM
  MIC, MRSA 24 272: 40< µM
  MIC, MRSA 24 328: 40< µM
  MIC, MRSA 24 408: 40< µM
[8]
  MIC, Reference S. aureus: 40< µM
  MIC (μM) (S. aureus), Figure 11: ND (ND—not detected, MIC>40 µM)
[9]
  MIC, Reference E. faecalis: 40< µM
[9]; reference strain ATCC29212, printed in the picture
  MIC (μM) (E. faecalis), Figure 11: ND (ND—not detected, MIC>40 µM)
[10]; 3 clinical VRE isolates
  MIC against clinical VRE isolates (as a group): > 40 µM
[10]
  VRE isolates susceptible out of those tested: 0/3
  MIC, VRE 25 051: 40< µM
  MIC, VRE 25 498: 40< µM
  MIC, VRE 27 085: 40< µM
